From patent publication US5917034A, “Antithrombotic n-amidinopiperidine and benzamidine derivatives” (Pfizer Inc., priority 1995, dated 1999)
Where a name gives a salt, the structure may show the parent alone.

How the values were obtained:
bovine thrombin = bovine thrombin (Bos taurus, UniProt P00735); test: Chromogenic assay, inhibition of thrombin; format: biochemical
Experimental: (§1) The inhibition of thrombin, trypsin, plasmin or factor Xa is measured in 96 well plate chromogenic assays. The percentage inhibition and IC50 are calculated from triplicate samples of an 8 concentration dose-response curve. From the substrate Km and IC50, the Ki for each inhibitor is calculated. All assays are carried out in a total incubation of 200 μl of 50 mM HEPES and 150 mM NaCl at pH 8.0, and all compound dilutions are preincubated with enzyme at room temperature for 15 minutes prior to addition of substrate. After 30 minutes incubation at 30° C., the O.D. is measured at […] in a 96 well plate reader. Thrombin activity is measured using bovine thrombin and S2238 (H-D-Phe-Pip-Arg-pNA), bovine pancreatic trypsin is assayed with S2222 (Benz-Isoleu-Glu-Gly-Arg-pNA), bovine plasma plasmin is assayed with Chromozym PL (Tosyl-Giy-Pro-Lys-pNA)and bovine factor Xa is assayed in 50 mM Tris, 150 mM NaCl, pH 7.5 buffer with S2222.

[1] = target: T1, bovine pancreatic trypsin (Bos taurus, UniProt P00760); test: Chromogenic assay, inhibition of trypsin; format: biochemical; conditions: in vitro, substrate S2222, pH 8.0, 30° C.
T1 construct: from tissue; host or cells: bovine pancreas
T1 sequence (P00760 24-246): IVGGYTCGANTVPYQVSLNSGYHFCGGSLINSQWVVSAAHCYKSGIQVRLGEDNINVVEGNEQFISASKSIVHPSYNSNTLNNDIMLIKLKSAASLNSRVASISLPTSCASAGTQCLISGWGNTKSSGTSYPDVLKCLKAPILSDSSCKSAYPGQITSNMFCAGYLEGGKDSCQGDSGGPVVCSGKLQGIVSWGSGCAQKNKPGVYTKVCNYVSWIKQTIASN
Experimental: as §1
The following Table illustrates the in vitro inhibitory activities against thrombin and trypsin for a range of the compounds of the invention.

Ki (bovine thrombin)	Ki [1]	SMILES
2 nM	360 nM	CN(C1CCCC(C)(C)C1)[C@@H](CC(=O)O)C(=O)N1CCCC[C@H]1CCOC1CCN(C(=N)N)CC1 (stereo partly drawn) [Example 25, N-[N-Methyl-N-(3,3-dimethylcyclohexyl)-(S)-α-aspartyl]-2(S)-[2-(N-amidino-4-piperidyloxy)ethyl]piperidine dihydrochloride]
45 nM	1300 nM	N=C(N)c1ccc(OCCC2CCCCN2C(=O)[C@H](CC(=O)O)NC2CCCCC2)cc1 (mixture of isomers) [Example 31, N-(N-Cyclohexyl-(S)-α-aspartyl)-2(R,S)-[2-(4-amidinophenoxy)ethyl]piperidine dihydrochloride]
35 nM	11000 nM	N=C(N)N1CCC(OCCC2CCCCN2C(=O)[C@H](CC(=O)O)NC2CCCCC2O)CC1 (mixture of isomers) [Example 17, N-[N-(2-Hydroxycyclohexyl)-(S)-α-aspartyl]-2(R,S)-[2-(N-amidino-4-Piperidyloxy)ethyl]piperidine bis-trifluoroacetate]
–	720 nM	N=C(N)N1CCC(OCCC2CCCCN2C(=O)[C@H](CC(=O)O)NC2CCCCCCC2)CC1 (mixture of isomers) [Example 16, N-(N-Cyclooctyl-(S)-α-aspartyl)-2(R,S)-[2-(N-amidino-4-piperidyloxy)ethyl]piperidine dihydrochloride]
16 nM	5000 nM	CCN(C1CCCCC1)[C@@H](CC(=O)O)C(=O)N1CCCCC1CCOC1CCN(C(=N)N)CC1 (mixture of isomers) [Example 29, N-(N-Cyclohexyl-N-ethyl-(S)-α-aspartyl)-2(R,S)-[2-(N-amidino-4-piperidyloxy)ethyl]piperidine dihydrochloride]
4.1 nM	1200 nM	N=C(N)N1CCC(OCC[C@@H]2CCCCN2C(=O)[C@H](CC(=O)O)NC2CC3CCC2C3)CC1 (stereo partly drawn) [Example 3, N-[N-(2-Norbornyl)-(S)α-aspartyl]-2(S)-[2-(N-amidino-4-piperidyloxy)ethyl]piperidine dihydrochloride]
